Experimental data taken from patent US20100113596A1, “Method for inhibiting liver fibrosis via retinoic acid derivative” (priority 2008, published 2010).

Legend:
[1] = test system: TGF-β-induced ROS in HSC-T6 cells; assay: ROS assay on TGF-β1 and PL-treated HSC-T6 cells (DCFH-DA, flow cytometry); type: cell-based; details: pretreatment with 30˜300 nM PL, TGF-β1 2 ng/ml
Description: (§1) Cells were incubated with 2 ng/ml of TGF-β and PL for 5 hours and analyzed for the oxidation state using 7-dichlorodihydrofluorescein diacetate (DCFH-DA) as a fluorogenic probe and flow cytometer (FACSCalibur). The cells were recovered with 0.01% trypsin and the cellular fluorescence intensity was measured after 30 min incubation of 5 μM DCFHDA. For each analysis, 10,000 events were recorded. Cells were collected in 0.01% trypsin, fixed with 3.7% formaldehyde, permeabilized with 0.02% Triton X-100 in PBS, and stained for a-SMA as described previously. For detecting a-SMA using flow cytometry, cells were treated with 2 ng/ml of TGF-β and PL for 12 hours and immunostained with α-SMA-specific antibody (Santa Cruz) and FITC-conjugated secondary antibody (Molecular Probe). Then the cells were recovered and subjected to flow cytometer, and PL can effectively eliminate radicals as ROS decreased with increasing dosages of PL, as referred to FIG. 1.
ROS intermediates act as signaling molecules of TGF-β in regulation of inflammatory and fibrotic responses. Therefore, first select marker was to determine whether PL could be an antioxidant to block TGF-β-induced ROS in HSC-T6 cells. The intracellular oxidation state of the cell was analyzed by flow cytometry, when ROS were induced by TGF-β1 (2 ng/ml). […]

α-SMA [2] = assay: α-SMA expression in liver tissue of TGF-β1 transferred fibrotic mice; type: in vivo; details: PL i.p. 30, 150 or 300 μg/kg, compared with the positive controls
Description: (§2) The eight-week-old BALB/c mice were fed ad libitum standard laboratory chow and water with or without 25 mM ZnSO4 plus 5% sucrose. PL was given intraperitoneally (i.p.) at 30, 150 or 300 μg/kg. The animals were hydrodynamically injected with pPK9a plasmid containing TGF-β1 gene through tail vein and simultaneously fed with ZnSO4(25 mM) and PL as reported. After 48 h, the mice were sacrificed for liver sections.
(§3) […] of plasmid (pPK9a) was dissolved in 3.0 ml Ringer's solution and injected in bolus into the tail vein in a short duration of 5˜7 seconds according to the hydrodynamics-based transfection protocol as described. ZnSO4(25 mM) was dissolved in the drinking water to activate the metallothionein promoter and stimulate TGF-β1 expression.
Mouse liver tissues were embedded in an optimal cutting temperature compound (Miles Inc.) and frozen in liquid nitrogen. […]

α-SMA [3] = assay: α-SMA expression in HSC-T6 cells (flow cytometry and Western blot); type: cell-based; details: TGF-β and PL, compared with positive control
Description: as §1
Liver tissues were homogenized in RIPA buffer and centrifuged as described; supernatant was taken as a whole-cell lysate. […]
Therefore, we examined whether PL could change the concentration of [Ca^2+]i in TGF-β treated cells. […] After treatment with PL, TGF-β1 was added to HSC-T6 cells and the [Ca^2+]i was measured immediately (FIG. 2). PL decreased the protein levels of α-SMA, which was detected by both flow cytometry and Western blot (FIG. 3). […]

Sp1 = Sp1 binding activity (EMSA) in liver of pPK9a-transferred mice fed with ZnSO4 water; type: in vivo, mouse; details: TGF-β1-induced increase
Description: as §2, §3
Since Sp1 is a critical mediator of Col 1A2 expression, we examined the effects of PL on Sp1 binding activity in pPK9a-transferred mice fed with ZnSO4 water.

collagen (Col 1A2) = assay: Col 1A2 expression, immunostaining of HSC-T6 cells treated with TGF-β and PL; type: cell-based; details: HSC-T6 cells treated with TGF-β and 30, 150 or 300 nM PL for 4 hours
Description: It has been shown that TGF-β plays a major role in fibrogenesis via the activation of HSC. After the HSC-T6 cells were treated with TGF-β and PL for 4 hours, the cells were subjected to immunostaining and observed under a fluorescence microscopy, as shown in FIG. 4.

p-Smad2/3 = assay: TGF-β-induced p-Smad2/3 and Smad4 translocation into nucleus (Western blot, immunocytostaining); type: cell-based
Text: Translocation of phosphorylated Smad complexes into nucleus is one of the key steps in signal transduction of the liver fibrosis. In activated HSC there is an elevated accumulation of p-Smad2/3 and Smad4 in nucleus. To understand how PL regulates Smad signaling pathway, we first determined the amount of Smad complexes using Western blot.

[4] = test system: [Ca2+]i in TGF-β treated HSC-T6 cells; assay: Measurement of cytosolic Ca2+ ([Ca2+]i) with fura-2; type: cell-based; details: HSC-T6 cells treated with PL, then TGF-β1 added; compared with positive control
Description: Trypsinized cells (10^6/ml) were recovered 4 h after culture with PL and loaded with 2 μM fura-2/acetoxy methyl (fura-2/AM) for 30 min at 25° C. before stimulating with TGF-β (2ng/ml). Cells were gently shaken for several seconds every 10 min to prevent re-attachment. Cells were washed and resuspended in Ca^2+-containing medium. Fura-2 fluorescence measurements were performed in a water-jacketed cuvette with continuous stirring at 25° C. Fluorescence was monitored with a Hitachi F-2500 fluorescence spectrophotometer by recording excitation signals at), and 380 nm and emission signals at 510 nm at 1-s intervals.
Therefore, we examined whether PL could change the concentration of [Ca^2+]i in TGF-β treated cells. Activation of HSC, the main source of liver collagen, involves the induction of α-SMA, conversing from quiescent to proliferation, and secretion of collagen. After treatment with PL, TGF-β1 was added to HSC-T6 cells and the [Ca^2+]i was measured immediately (FIG. 2). PL decreased the protein levels of α-SMA, which was detected by both flow cytometry and Western blot (FIG. 3). The results imply that a trace amount of PL is sufficient enough to block-[Ca^2+]i and down-regulate α-SMA expression.

How did the “ROS generated by TGF-β1” value [1] turn out when `CC1=C(/C=C/C(C)=C/C=C/C(C)=C/C(=O)O)C(C)(C)CCC1` [PL] was run?
The value was “sufficiently eliminate the ROS generated by TGF-β1 in a dose-dependent manner”.

And the “α-SMA expression in liver tissue” value (α-SMA [2])?
The value was “markedly inhibited”.

What about the α-SMA expression (α-SMA [3]) of the same molecule?
Its α-SMA expression is “significantly reduced”.

And the Sp1 binding activity (Sp1)?
Its Sp1 binding activity is “the increase was reversed by PL treatment”.

And the “expression of Col 1A2” value (collagen (Col 1A2))?
Its value is 0.001%.

And the “amount of p-Smad2/3 in the cell nucleus” value (p-Smad2/3; Western blot)?
The value was “decreased the amount of p-Smad2/3 in the cell nucleus in a dose-dependent manner”.

What about the “transport of p-Smad2/3 into cell nucleus” value (p-Smad2/3; immunocytostaining) of the same molecule?
The value was “decreased the transport of p-Smad2/3 into cell nucleus also in a dose-dependent manner”.

And the “intracellular calcium [Ca2+]i” value [4]?
Its value is “significantly reduced”.
